Measured values as given in US20160206604A1, “FORMULATIONS COMPRISING WETTING AGENTS AND COMPOUNDS FOR THE MODULATION OF HEMOGLOBIN (S)” (GLOBAL BLOOD THERAPEUTICS, INC., priority 2013, published 2016).
Values joined by “and” are separate entries in the source; they are usually repeats but may differ in a detail not shown here. Equal values may be shown once. Read-outs that look alike come from different tables or passages of the source.

What was measured:
[1] = target: T1, HbS/A (Homo sapiens, UniProt P68871+P69905, E7V); test: R/T assay (relaxed-to-tense transition assay); type: biochemical; conditions: for R-T (9 μM)/(delta R), class / R-T (9 μM)/(delta R): 9 μM compound; for R-T (9 μM)/(delta R) / R-T (10 μM)/(delta R): 3 μM HbS/A; for R-T (10 μM)/(delta R), class / R-T (10 μM)/(delta R): 10 μM compound
T1 construct: A mixture of HbS/A was purified from blood obtained from homozygous sickle cell patients; from tissue; host or cells: blood of homozygous sickle cell patients; hemoglobin purified from it
Procedure: This ability can be expressed as a “delta R” value (i.e., the change in the time-period of the R state after hemoglobin is treated with a compound, as compared to the period without treatment with the compound). Delta R is the % R to remaining after the compounds treatment compared with no treatment (e.g. if R % without treatment is 8% while with treatment with a target compound is 48% R at 30 μM, then % R is 40% for that compound.
A mixture of HbS/A was purified from blood obtained from homozygous sickle cell patients though the Hemoglobinopathy Center at Children's Hospital Oakland Research Institute (CHORI) with Institutional Review Board approval. HbS/A (at a final concentration of 3 μM) was incubated for 1 hr at 37° C. in presence or absence of compounds in […] potassium phosphate buffer, pH=7.4 and 30 μM 2, 3 diphosphoglycerate (DPG) in 96 well plates in a final volume of 160 μl. Compounds were added at different concentrations (3 μM to 100 μM final concentrations). Plates were covered with a Mylar film. After incubation was completed the Mylar cover was removed and the plates were placed in a Spectrostar Nano plate reader previously heated at 37° C. Five minutes later, N2 (flow rate=20 L/min) was flowed through the spectrophotometer. Spectroscopic measurements (300 nm to 700 nm) were taken every 5 min for 2 hours. Data analysis was performed by using linear regression from the data retrieved for all wavelengths.
Results: Table 3 below lists the delta R values where “+” indicates a delta R of between 0 and 30, “++” indicates a delta R of between 30 and 50, and “+++” indicates a delta R of 50 or greater.

[2] = Pharmacokinetic (PK) properties in rats, oral or intravenous dosing; type: in vivo, Rats (Sprague-Dawley); conditions: for blood plasma ratio: male, Sprague-Dawley, rat, whole blood and plasma, po, 10 mg/kg, dosed orally
Procedure: This experiment was established and used in order to assess the pharmacokinetic (PK) properties of the compounds.
Sample collection and data analysis: Rats (Sprague-Dawley, male, 8-12 weeks old) were dosed with one of three compounds corresponding to compound 12, compound 22 or compound 23. The rats received oral (10 mg/kg) or intravenous (1 mg/kg) doses of the compound. Rats were fasted overnight before the experiments and provided with food after the 2 hour sampling time point.
(§1) Blood samples were collected at different time points. Blood was anti-coagulated by 3.2% TSC (trisodium citrate) and a portion was separated into plasma fraction by centrifugation and removal of blood cells. Plasma and lysed blood samples were analyzed for drug concentration using LC-MS/MS. PK parameters were calculated by non compartmental analysis of the concentration-time profiles using WinNonLin software (Pharsight, Mountain View, Calif.). Apparent elimination half-life (t1/2) values were calculated as ln(2)/k. Area under the concentration-time curve (AUC) values were estimated using the linear trapezoidal method. AUClast values were calculated from the dosing time to the last measurable concentration. AUCinf values were calculated as the sum of the corresponding AUClast and the ratio of the last detectable concentration divided by k. Plasma clearance (Cl) is calculated from Dose/AUCinf. Volume of distribution at steady state (Vss) is calculated from Mean Residence Timeinf×Clss. Maximum concentration (Cmax) and time to Cmax (Tmax) was recorded as observed. The blood/plasma partitioning ratio was calculated at each experimental time point.

[3] = target: T2, HbS (Homo sapiens, UniProt P68871+P69905, E7V); test: Reverse Hemox assay (oxygen equilibrium curves of whole blood); type: cell-based; set-up: Oxygen Equilibrium Curves (OEC) of whole blood before and after treatment; from tissue; host or cells: whole blood (red blood cells) of homozygous sickle cell patients; conditions: 1 mM compound, sickle cell whole blood; for Reverse Hemox (1 mM)/(delta p50%): hematocrit 20%, 1 hour 37° C.
Procedure: Oxygen Equilibrium Curves (OEC) of whole blood before and after treatment with different concentrations of compounds 12, 22 and 23 were performed as follows using a HEMOX analyzer (TCS Scientific, New Hope, Pa.). Blood samples from homozygous sickle cell patients were obtained though the Hemoglobinopathy Center at Children's Hospital Oakland Research Institute (CHORI) with Institutional Review Board approval. The hematocrit was adjusted to 20% using autologous plasma and the blood samples were incubated for 1 hour at 37° C. in absence or presence of compounds. 100 μl of these samples were added to 5 mL of Hemox buffer (30 mM TES, 130 mM NaCl, 5 mM KCl, pH=7.4) at 37° C. and then transferred to the Hemox sample chamber. The samples were saturated with oxygen by flushing with compressed air for 10 minutes. The samples were then flushed with pure nitrogen and the respective absorbances of oxy- and deoxy-Hb were recorded as a function of the solution pO2. The oxygen equilibrium data were then fitted to the Hill Model to obtain values for p50. The deoxygenation curves for both whole blood alone (control) and whole blood in the presence of the compound were collected with the TCS software.
Results: Table 3 below lists the delta p50% values where “+” indicates a delta p50% of between 0 and 29, “++” indicates a delta p50% of between 30 and 50, and “+++” indicates a delta p50% of 50 or greater.

[4] = target: T2, HbS; test: Polymerization assay; type: biochemical; set-up: HbS is purified by the CRO VIRUSYS, from blood obtained from homozygous sickle cell patients; tissue VIRUSYS (CRO that did the purification); host or cells: blood of homozygous sickle cell patients; conditions: 75 μM compound; for Polymerization (75 μM)/(% DT): 50 μM purified HbS, percent delay time
Procedure: Polymerization assays are carried out in vitro using purified HBS exchanged into 1.8 M potassium phosphate buffer at pH 7.4. Using a slightly modified protocol (Antonini and Brunori, 1971), HbS is purified by the CRO VIRUSYS, from blood obtained from homozygous sickle cell patients through the Hemoglobinopathy Center at Children's Hospital Oakland Research Institute (CHORI) with Institutional Review Board approval. Compounds are prepared in 100% DMSO and a desired amount is added to 50 μM of purified HbS at a final DMSO concentration of 0.3%. Final potassium phosphate concentration is adjusted to 1.8 M using a combination of 2.5 M potassium phosphate stock solution and water at pH 7.4. The reaction mixture is incubated for an hour at 37° C. and then transferred into a 24-well plate for deoxygenation in a glove box containing 99.5% nitrogen and 0.5% oxygen. The 24-well plate is not covered and incubated at 4° C. on a plate cooler inside the glove box for one and a half hours. Fifty μL of the reaction mixture is transferred into a 96-well plate and the absorbance at 700 nm is measured every minute for one hour at 37° C. in a plate reader located inside the glove box. A plot of the absorbance against time is fitted using a Boltzman sigmoidal fit and the delay time (from zero to time at half Vmax) is measured. To compare and rank compounds, delay times are expressed as percent delay (% DT), which is defined as the difference in delay times for HbS/compound and HbS alone multiplied by 100 and divided by the delay time for HbS alone.
Results: Compounds listed below have been tested in the polymerization assay. Activity ranges are defined by the number of dagger (†) symbols indicated. † denotes activity ≧40% but ≦80%; †† denotes activity >80% but ≦120%; ††† denotes activity >120% but ≦140%; †††† denotes activity >[…].

[5] = target: hemoglobin (Homo sapiens, UniProt P68871+P69905); test: In vitro system measuring binding to hemoglobin and human serum albumin; conditions: both proteins present in their respective physiologic ratio
Procedure: However, when the red blood cell compartment is considered, compound 12 unexpectedly partitions into blood to a far greater extent than compound 22 or compound 23. […] When the red blood cell/plasma ratio was measured at the peak concentration, compound 12 partitioned at a ratio of 70 to 1 into the erythrocytes attesting to its preferential partition into the compartment which contains the drug target hemoglobin. Supportive data was reported in an in vitro system measuring binding of compound 12 to hemoglobin and human serum albumin.

[6] = Pharmacokinetics of compound 12 suspension formulation (methylcellulose/sodium dodecyl sulfate), oral, rats; type: in vivo, Sprague-Dawley rats
Procedure: as §1
A suspension of Compound 12 was prepared by triturating 250 mg of compound 12 in a mortar with 2 mL of 0.5% methylcellulose in water and 200 μL of 0.5% sodium dodecyl sulfate. After approximately 5 minutes, the suspension was homogeneous. The volume of the mixture was adjusted to 12.5 mL with 0.5% methylcellulose to obtain a final concentration of 20 mg/mL. To prepare a 10 mg/mL suspension of compound 12, the 20 mg/mL suspension was diluted two-fold with 0.5% methylcellulose.
Pharmacokinetics of compound 12 following an oral administration of compound 12 suspension at 50 mg/kg or 100 mg/kg were studied in male Sprague-Dawley rats (n=3/group) using the method described in Example 1. Maximum blood concentration of compound 12 was achieved within 6 hours. The maximum concentrations at 50 mg/kg and 100 mg/kg compound 12 were 281 μg/mL (903 μM) and 327 μg/mL (1050 μM), respectively.

[7] = Pharmacokinetics of compound 12 following oral administration of compound 53 formulation, rats; conditions: following oral administration 10 mg/kg
[8] = overall exposure, read-out: Blood/plasma (Ratio of exposure AUCINF)

Row | SMILES | R-T (9 μM)/(delta R), class [1] | R-T (9 μM)/(delta R) [1] | R-T (10 μM)/(delta R), class [1] | R-T (10 μM)/(delta R) [1] | red blood cell/plasma ratio at the peak concentration ([2]; ratio to 1 into erythrocytes) | Reverse Hemox (1 mM)/(delta p50%), class [3] | Reverse Hemox (1 mM)/(delta p50%) [3] [%] | Polymerization (75 μM)/(% DT), class [4] | Polymerization (75 μM)/(% DT) [4] [%] | binding to hemoglobin versus human serum albumin [5] | AUC(0-inf) ([6]; male, Sprague-Dawley, rat, blood, oral suspension 50 mg/kg) [µg·h/mL] | half-life ([6]; male, Sprague-Dawley, rat, blood, oral suspension 50 mg/kg or 100 mg/kg, read-out: mean terminal half-life) [h] | AUC(0-inf) ([6]; male, Sprague-Dawley, rat, blood, oral suspension 100 mg/kg) [µg·h/mL] | time to maximum blood concentration ([6]; oral suspension 50 mg/kg or 100 mg/kg) [h] | maximum concentration ([6]; oral suspension 50 mg/kg, blood) | maximum concentration ([6]; oral suspension 100 mg/kg, blood) | blood plasma ratio [2, 8] | blood plasma ratio ([2]; at Cmax, read-out: Blood/plasma (Ratio of peak concentration)) | in vivo conversion of prodrug [7]
1 | CC(C)n1nccc1-c1ncccc1COc1cccc(O)c1C=O [Compound 12, 2-hydroxy-6-[[2-(2-propan-2-ylpyrazol-3-yl)pyridin-3-yl]methoxy]benzaldehyde] | +++ (“+++” indicates a delta R of 50 or greater) | 65.45 | +++ (“+++” indicates a delta R of 50 or greater) | 62.75 | 70 | +++ (“+++” indicates a delta p50% of 50 or greater) | 79.83 | †† (†† denotes activity >80% but ≦120%) | 108.56 | preferentially binding to hemoglobin | 7340 | 16 to 19 | 9460 | ≤ 6 | 281 μg/mL and 903 μM | 327 μg/mL and 1050 μM |  |  | 
2 | COc1cc(C=O)c(OCc2cccnc2-c2ccnn2CC(F)F)cn1 [Compound 22, 5-[[2-[2-(2,2-difluoroethyl)pyrazol-3-yl]pyridin-3-yl]methoxy]-2-methoxypyridine-4-carbaldehyde] | ++ (“++” indicates a delta R of between 30 and 50) | 31.02 | ++ (“++” indicates a delta R of between 30 and 50) | 36.25 |  | +++ (“+++” indicates a delta p50% of 50 or greater) | 68.69 | †† (†† denotes activity >80% but ≦120%) | 90.22 |  |  |  |  |  |  |  | 5 |  | 
3 | COc1cc(C=O)c(OCc2cccnc2-c2ccccc2C)cn1 [Compound 23, 2-methoxy-5-[[2-(2-methylphenyl)pyridin-3-yl]methoxy]pyridine-4-carbaldehyde] | ++ (“++” indicates a delta R of between 30 and 50) | 37.15 | +++ (“+++” indicates a delta R of 50 or greater) | 51.55 |  | +++ (“+++” indicates a delta p50% of 50 or greater) | 72.45 | †† (†† denotes activity >80% but ≦120%) | 98.19 |  |  |  |  |  |  |  | 1 | 3 | 
4 | CC(C)n1nccc1-c1ncccc1COc1cccc(OP(=O)(O)O)c1C=O [Compound 53, 2-formyl-3-((2-(1-isopropyl-1H-pyrazol-5-yl)pyridin-3-yl)methoxy)phenyl dihydrogen phosphate] |  |  |  |  |  |  |  |  |  |  |  |  |  |  |  |  |  |  | converted to compound 12
